Assay results reported in BindingDB's records for doi:10.1016/S1074-5521(01)00079-5 (State University of New York, 2001).

Biological target: HIV-1 protease (Human immunodeficiency virus, UniProt O90785)
Test: Enzyme Inhibition Assay

Chain of HIV-1 protease (O90785 whole entry): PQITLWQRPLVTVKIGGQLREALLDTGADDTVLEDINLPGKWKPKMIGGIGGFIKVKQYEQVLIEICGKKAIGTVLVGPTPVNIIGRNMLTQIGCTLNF

Row | Ki [µM] | SMILES
1 | 0.0038 | O=C(NC1c2ccccc2CC1O)[C@H](Cc1ccccc1)CC(O)C[C@@H](Cc1ccccc1)C(=O)NC1c2ccccc2CC1O (stereo partly drawn) [Carbinol, 18b]
2 | 3.2 | O=C(NCc1ccccc1)[C@H](Cc1ccccc1)CC(O)C[C@@H](Cc1ccccc1)C(=O)NCc1ccccc1 [Carbinol, 18a]

Row | SMILES | Ki [µM]
3 | O=C(NCc1ccccc1)[C@H](Cc1ccccc1)C[Si](O)(O)C[C@@H](Cc1ccccc1)C(=O)NCc1ccccc1 [Silanediol, 17a] | 3.2
